Measurements published in patent US8334298B2, “Treatment or prevention of ovarian hyperstimulation syndrome (OHSS) using a dopamine agonist” (Ferring International Center S.A., priority 2005, dated 2012).
Values joined by “and” are separate entries in the source; they are usually repeats but may differ in a detail not shown here. Equal entries are not always repeated.

Columns and labels:
[1] = tested on: women at risk of developing moderate-severe early OHSS; assay: Prospective, randomized, double blind study of cabergoline in oocyte donors at risk of OHSS (Example 6); format: in vivo
Protocol: Materials and Methods. Example 5 is a prospective, randomized and double blind study of 54 oocyte donors in whom 20-30 follicles greater than 12 mm developed, and from whom more than 20 oocytes were retrieved. Immediately after hCG administration, patients were divided in two groups based on a computer randomization: 1) the study group (n=29) received 0.5 mg oral cabergoline daily for eight days; the control group (n=25) received one tablet of placebo for the same eight days. The patients were monitored every 48 hours from the day of hCG administration (day 0) up through day 8. The presence of ascites was defined as a pocket of peritoneal fluid greater than 9 cm^2, with the patient in litotomy position seen on vaginal ultrasound. Also, regular blood parameters and serum PRL levels were recorded.

[2] = tested on: women with PCOS and hyperprolactinemia; conditions: during ovarian induction with GnRH agonist, FSH and hCG; cited from earlier work
[3] = tested on: patient with pituitary adenoma and OHSS; conditions: cabergoline 0.5 mg twice per week for three weeks; cited from earlier work
OHSS rats = assay: Dose response of quinagolide on vascular permeability in OHSS rats (Example 4); format: in vivo, Wistar rats; conditions: cabergoline 150 ug/kg oral (positive control); single rat; 48-56 h after hCG; listed as Cb
Protocol: Inducing OHSS manifestations. A total of 96 female immature Wistar rats (Harlan Iberica, Sant Feliu de Codina, Barcelona, SPAIN), weighing from 42-48 grams at the beginning of these experiments (day 22), were used to carry out the studies disclosed in Examples 4 and 5. They were injected subcutaneously (s.c) with 10 IU of Pregnant Mare's Serum Gonadotropin (PMSG) (Sigma) for 4 consecutive days (days 22-25), followed by administered intraperitoneally (i.p.) with 30 IU of hCG on the fifth day (day 26) in order to induce OHSS clinical manifestations.
Measuring vascular permeability (VP). VP was used as an index to estimate and compare the degree of development of the illness. VP was measured in all animals 48-56 hours after hCG administration, following methodology previously described (Gomez et al., supra). Briefly, 0.2 ml Evans Blue dye, 0.05 M, was injected through the femoral vein. After 30 minutes, the peritoneal cavity was irrigated with 5 ml saline, pH 6, 22° C., and massaged for 30 seconds to recover extravasated dye. The peritoneal fluid was recovered in 13 ml tubes containing 0.1 ml NaOH. The tubes were centrifuged at 900×g for 12 minutes to avoid protein interference. The supernatant was filtered through 0.22 um filters in order to eliminate ascitic protein/fibrin mucus which could interfere in the posterior measurements. Finally the absorbance of the extravasated dye was measured at 595 nm using a spectrophotometer. Average and average deviations in each group (see below) were calculated. VP was expressed as μg extravasated Evans Blue dye/100 g body weight in each animal.
A total of 70 rats were used for this study. All 70 rats were administered PMSG/hCG to induce OHSS symptoms, as described above. Quinagolide (batch no. 1010003004; supplied by Ferring Labs) was administered to 56 rats. The 56 rats that received quinagolide were used as a dose response test group. […] Cabergoline (Dostinex®) was administered to 6 rats as a positive control. The specific details of the dosing regimen for each group is as follows:
Vehicle control group (quinagolide 0 μg/kg) (n=8). Eight rats were implanted with prolactin placebo pellets, 5 days release, between 10:00 to 11:00 on day 26, just following hCG injection (see General Procedures, above). Six hours after pellet implantation, the rats in this group were orally administered vehicle solution (1:6 alcohol in water mixture) (without quinagolide). They received another oral vehicle administration of vehicle solution 24 hours later. Experimental groups (quinagolide at 0.1, 0.3, 1, 3, 10, 25, 50 μg/kg/day to 7 test groups of rats) (n=8 in each test group). The rats in these groups were implanted with prolactin pellets, 5 days release, between 10:00 to 11:00 on day 26, just following hCG injection (see General Procedures, above). […] In this manner, the desired 0.1, 0.3, 1, 3, 10, 25, 50 μg/kg doses to be assayed were achieved. Twenty four hours later, the rats in this group were administered with another dose of the same amounts of quinagolide. Positive (cabergoline) control group (n=6). These six rats were implanted with prolactin pellets, 5 days release, between 10:00 to 11:00 .m on day 26, just following hCG injection. […] Twenty four hours later, the rats in this group were administered with another dose of the same amount of cabergoline. […] Reconstitution and dilution process to reach appropriate quinagolide doses for oral administration. Appropriate doses were prepared fresh just prior to being administered (on day 26). A single quinagolide vial, containing approximately 2.30-2.30 mg quinagolide, was employed for each single set of animals. For each solution, approximately 2.30-2.30 mg quinagolide was diluted in a vehicle solution (1:6 alcohol:water mixture) to achieve a stock concentration of 100 μg quinagolide per ml solution. […]

With `C=CCN1C[C@H](C(=O)N(CCCN(C)C)C(=O)NCC)C[C@@H]2c3cccc4[nH]cc(c34)C[C@H]21` [Cabergoline, cabergoline] the “Haemoglobin day 4” value ([1]; 0.5 mg oral cabergoline daily for eight days, n=29, mean ± SEM, p 0.006 vs control) was 12.7 ± 1.2 g/dL, the “Haemoglobin day 6” value ([1]; 0.5 mg oral cabergoline daily for eight days, n=29, mean ± SEM, p 0.01 vs control) was 12.9 ± 1.2 g/dL and the “Free fluid area day 6” value ([1]; 0.5 mg oral cabergoline daily for eight days, n=29, mean ± SEM, p 0.03 vs control) was 8.8 ± 1.7 cm2. The “Hematocrit day 6” value ([1]; 0.5 mg oral cabergoline daily for eight days, n=29, mean ± SEM, p 0.04 vs control) was 38.9 ± 3.9%, the Ascites % ([1]; 0.5 mg oral cabergoline daily for eight days, 7/29 patients, ascites = pocket of peritoneal fluid greater than 9 cm^2, p 0.01 vs control) was 24.1 7/29% and the “Serum PRL levels” value ([1]; 0.5 mg oral cabergoline daily, days 2, 4, 6 and 8 as compared to controls, p<0.0001) was “significantly lower”. For the same molecule, the “risk of OHSS” value [2] was “reduce the risk of OHSS”, the prolactin levels [3] was “normalized prolactin levels” and the “Absorbance at 595 nm” value (OHSS rats) was 0.356 and 0.034 and 0.1 (2×) and 0.293. For the same molecule, the “μg EB per 100 g body weight” value (OHSS rats) was 21.56 μg EB per 100 g body weight and 2.118 μg EB per 100 g body weight and 6.507 μg EB per 100 g body weight and 6.229 μg EB per 100 g body weight and 17.99 μg EB per 100 g body weight and the “μg Evans Blue (Abs * 4360)” value (OHSS rats) was 1552.16 μg and 148.24 μg and 436 μg (2×) and 1277.48 μg.
